This is an account of results in patent US20140051729A1, “COMPOSITIONS AND METHODS FOR TREATING DEGENERATIVE MUSCLE CONDITIONS” (University of Washington, priority 2011, published 2014).

One assay deals with S1P level. Description: S1P levels in tissues of CTX injured mdx mice after IP THI. The format is in vivo, mouse. To be noted: 5-month-old mdx males, IP THI 5 times during 3 days, day 4 post CTX, vs vehicle. The protocol:
(a) Experimental schematic of THI (0.075 μg/day) and PBS (vehicle) treated mdx mice injected intraperitoneally (IP) twice daily for the first 72 hours following cardiotoxin (CTX) injury. Muscles, spleen or plasma from 5MO (n=6) mdx males were harvested for S1P and creatin kinase (CK) analysis at day 4 post CTX injury. Muscles from aged mdx mice (n=7 THI treated: 3 11MO females, 4 16MO males. n=6 vehicle: 3 11MO females, 3 16MO males) were harvested for histopathology analysis 18 days post CTX injury. […] (d) Quantification of Picrosirius Red staining indicates reduced fibrosis following injury in both Tibialis Anterior (TA) and Quadriceps (Quads) muscles in mice treated with THI. […] Scale bars=50 μm. (f) Oil Red-O staining depicts fat deposits (arrows) over the entire cross-sectional area of THI treated and control injured TAs. […] Error bars represent SEM.
The effects of THI in the dystrophic mdx mouse model were studied. […] THI was administered intraperitoneally (IP) to three groups of mdx mice. Right tibialis anterior (TA) and quadriceps muscles were uninjured, while left counterparts were injured using CTX, a well characterized model of acute injury where initial muscle destruction is followed by a rapid myogenic response. […] The effects of THI administration on the plasma creatine kinase (CK) activity level was also measured.

For a further assay, the target named is T1, SPL (Mus musculus, UniProt Q8R0X7).
T1 construct: host or cells: mice (in vivo)
T1 sequence (Q8R0X7 1-568): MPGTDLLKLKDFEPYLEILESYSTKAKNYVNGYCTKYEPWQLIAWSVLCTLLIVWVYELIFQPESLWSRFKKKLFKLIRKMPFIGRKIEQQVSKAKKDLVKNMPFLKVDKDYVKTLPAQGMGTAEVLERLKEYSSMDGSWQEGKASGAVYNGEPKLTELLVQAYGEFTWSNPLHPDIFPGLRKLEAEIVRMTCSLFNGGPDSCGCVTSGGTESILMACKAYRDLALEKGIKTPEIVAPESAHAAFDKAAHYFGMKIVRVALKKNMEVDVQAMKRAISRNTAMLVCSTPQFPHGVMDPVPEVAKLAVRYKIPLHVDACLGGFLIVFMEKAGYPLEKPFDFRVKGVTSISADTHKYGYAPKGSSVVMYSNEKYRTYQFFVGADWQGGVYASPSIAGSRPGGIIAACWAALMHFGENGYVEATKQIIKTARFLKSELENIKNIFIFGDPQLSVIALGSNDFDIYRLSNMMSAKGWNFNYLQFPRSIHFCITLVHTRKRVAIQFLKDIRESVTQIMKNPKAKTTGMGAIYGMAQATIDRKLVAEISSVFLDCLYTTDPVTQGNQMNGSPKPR
The conditions noted are these: Schwab et al., Science 2005; cited from earlier work.

Assay [1] relates to Dystrophic mutant flies (TubGal4:UAS-Dys^C-RNAi/+). The assay can be described thus: Myofibril Projectin immunohistochemistry in dystrophic flies after oral THI. The format is in vivo, Drosophila melanogaster. To be noted: 3 days once-daily oral THI, myofibrils from 10 day old flies. The protocol: In mice, the genetic reduction of S1P lyase activity can be phenocopied pharmacologically by the delivery of the small molecule 1-[5-[(1R,2S,3R)-1,2,3,4-tetrahydroxybutyl]-1H-imidazol-2-yl]-ethanone (THI), which inhibits the activity of S1P lyase. Dystrophic mutant flies were administered THI to investigate possible THI suppression of the muscle degeneration phenotype.
Flies were dipped in 95% EtOH and then dissected in 1×PBS (pH 7.4). Heads and abdomens were removed, and the thoraxes opened. Samples were stained using a modified ovary staining protocol 3. Samples were then fixed in 5% paraformaldehyde (Electron Microscopy Sciences) for 1 hour, rinsed in PBT (PBS/0.2% Triton X-100 v/v) 4 times, and then blocked for 1 hour in PBTB (PBT, 0.4% BSA w/v, 5% Normal Goat Serum v/v) at room temperature. Samples were stained in primary antibody pre-diluted in PBTB (Phalloidin-Alexa-Fluor 568, Invitrogen [mouse, 1:200]; Projectin (Mac150), Babraham Institute [rat, 1:50]) overnight at 4° C., rinsed in PBT 4 times at room temperature (RT), and then stained with secondary antibody pre-diluted in PBTB (Alexa Fluor 488 [mouse, 1:500]) overnight at 4° C. […] For each genotype, 4-5 flies were analyzed, and 6-7 muscles per fly were analyzed. […]

With `CC(=O)c1ncc([C@@H](O)[C@H](O)[C@H](O)CO)[nH]1` [THI, 1-[5-[(1R,2S,3R)-1,2,3,4-tetrahydroxybutyl]-1H-imidazol-2-yl]-ethanone], in the assay with S1P level, the “S1P level in CTX injured quadriceps” value is “significantly increased” and the “S1P level in spleen tissue” value was “significantly increased”. At SPL, the “SPL activity when administered to mice” value is “inhibits SPL activity”. Further, the “suppression of muscle wasting (myofibrils)” value in assay [1] is reported as “significant suppression of muscle wasting”.
